US20190008848A1, “IDENTIFICATION OF ADDITIONAL ANTI-PERSISTER ACTIVITY AGAINST BORRELIA BURGDORFERI FROM AN FDA DRUG LIBRARY” (THE JOHNS HOPKINS UNIVERSITY, priority 2015, published 2019)
Counter-ions that a name gives are not always drawn. Like-named read-outs stand apart in the source and are kept apart here. Bridge positions count the residues as written; N and C are the ends. Square brackets hold non-standard residues; d marks the D form. Peptide text beside a SMILES is read from it. * marks the point of attachment. Ileψ(thiazoline)Cys = CC[C@H](C)[C@H](N)C1=N[C@H](C(=O)*)CS1; dOrn = NCCC[C@@H](N)C(=O)O

Tests used:
[1] = system: stationary phase B. burgdorferi; assay: Residual viable B. burgdorferi by epifluorescence microscope counting after drug exposure; settings: for viability at 50 µM: Borreliella burgdorferi, 168 h, read-out: Residual viable cells (Microscopy)
Protocol: (§1) Borrelia burgdorferi strain B31 (ATCC35210) was received from the […] (Manassas, Va., USA) and was grown in BSK-H medium (HiMedia Laboratories, Mumbai, India) and 6% rabbit serum (Sigma Aldrich, St. Louis, Mo., USA). The culture was filtered and sterilized using a […] and incubated in capped sterile 50 mL conical tubes (BD Biosciences, CA, USA) at 33° C. for 7 days without antibiotics until the culture reached stationary phase.
(§2) The cultures were examined using a Nikon Eclipse E800 microscope with differential interference contrast and epifluorescent illumination. The pictures were captured using a SPOT slider color camera. A SYBR Green I/PI assay was used to assess the viability of the bacterial sample using the ratio of live to dead B. burgdorferi (measured with green and red fluorescence, respectively) as measured by a plate reader.
(§3) Briefly, prediluted drug stock (10 μL) was added to 7 day old stationary phase B. burgdorferi culture (90 μL) to achieve a 50 μM final drug concentration per well. The plates were then incubated at 33° C. for 7 days at which point the SYBR/PI rapid viability assay was performed in a fluorescence plate reader to obtain the green-red fluorescence ratio.

[2] = system: stationary phase B. burgdorferi; assay: SYBR Green I/PI viability assay (drug library screen, plate reader); settings: for viability at 50 µM: Borreliella burgdorferi, 168 h; for activity against stationary phase B. burgdorferi (in words): screen at 50 μM, 7 days; for Residual viable cells (SYBR/PI): Table 3
Protocol: as §1, §2, §3

[3] = read-out: Residual viable cells (SYBR Green/PI), Table 1, drugs 50 μM, 7 day old stationary phase cells treated for 7 days
[4] = read-out: Residual viable cells (SYBR/PI), Table 3, drugs 50 μM, 7-day old stationary phase cells treated for 7 days
[5] = Table 1, drugs 50 μM, 7 day old stationary phase cells treated for 7 days
[6] = drugs 50 μM, 7-day old stationary phase cells treated for 7 days
[7] = read-out: Residual viable cells (SYBR Green/PI)
[8] = read-out: Residual viable cells (SYBR/PI)

Molecule | viability at 50 µM [1] [%] | viability at 50 µM [2, 3] [%] | viability at 50 µM [2, 4] [%] | further results
CC1(C)S[C@@H]2[C@H](NC(=O)[C@H](N)c3ccc(O)cc3)C(=O)N2[C@H]1C(=O)O [Amoxicillin] | 76 | 76 | 76 | –
C[C@@H]1CC[C@H]2[C@@H](C)C(=O)O[C@@H]3O[C@@]4(C)CC[C@@H]1[C@]32OO4 [Artemesinin] | 45 | 49 | 49 | activity against stationary phase B. burgdorferi (in words) [2]: good activity
C[C@H]1[C@H](NC(=O)/C(=N\OC(C)(C)C(=O)O)c2csc(N)n2)C(=O)N1S(=O)(=O)O [Aztreonam] | 50 | 55 | 55 | –
CC[C@H](C)[C@H](N)C1=N[C@H](C(=O)N[C@@H](CC(C)C)C(=O)N[C@H](CCC(=O)O)C(=O)N[C@H](C(=O)N[C@H]2CCCCNC(=O)[C@H](CC(N)=O)NC(=O)[C@@H](CC(=O)O)NC(=O)[C@H](Cc3cnc[nH]3)NC(=O)[C@@H](Cc3ccccc3)NC(=O)[C@H]([C@@H](C)CC)NC(=O)[C@@H](CCCN)NC2=O)[C@@H](C)CC)CS1 [Bacitracin, Bacitracin zinc salt] ({Ileψ(thiazoline)Cys}-L[dE]IK[dOrn]I[dF]H[dD]N; lactam 4-C) | 60 | 47 | 47 | –
c1ccc(-c2ccc(C(c3ccccc3)n3ccnc3)cc2)cc1 (centres unmarked) [Bifonazole] | 50 | 48 | 48 | activity against stationary phase B. burgdorferi (in words) [2]: reasonable activity
CC1(C)S[C@@H]2[C@H](NC(=O)C(C(=O)O)c3ccccc3)C(=O)N2[C@H]1C(=O)O (some centres unmarked) [Carbenicillin] | 64 | 46 | 46 | –
C=CC1=C(C(=O)O)N2C(=O)[C@@H](NC(=O)/C(=N\OCC(=O)O)c3csc(N)n3)[C@H]2SC1 [Cefixime] | 56 | 56 | 56 | –
CO/N=C(\C(=O)N[C@@H]1C(=O)N2C(C(=O)O)=C(COC(N)=O)CS[C@H]12)c1ccco1 [Cefuroxime] | 49 | 43 | – | –
CC(C)(C)C(=O)C(Oc1ccc(Cl)cc1)n1ccnc1 (centres unmarked) [Climbazole] | 71 | – | 62 | activity against stationary phase B. burgdorferi (in words) [2]: reasonable activity
CCCCCCCCCC(=O)N[C@@H](Cc1c[nH]c2ccccc12)C(=O)N[C@H](CC(N)=O)C(=O)N[C@@H](CC(=O)O)C(=O)N[C@@H]1C(=O)NCC(=O)N[C@@H](CCCN)C(=O)N[C@@H](CC(=O)O)C(=O)N[C@H](C)C(=O)N[C@@H](CC(=O)O)C(=O)NCC(=O)N[C@H](CO)C(=O)N[C@@H]([C@H](C)CC(=O)O)C(=O)N[C@@H](CC(=O)c2ccccc2N)C(=O)O[C@@H]1C [Daptomycin] | 35 | 28 | 28 | –
C[C@H]1c2cccc(O)c2C(=O)C2=C(O)[C@]3(O)C(=O)C(C(N)=O)=C(O)[C@@H](N(C)C)[C@@H]3[C@@H](O)[C@@H]21 [Doxycycline] | 75 | 67 | 67 | –
Nc1nc(=O)[nH]cc1F [Flucytosine (5-Fluorocytosine), 5-Fluorocytosine] | 66 | – | 68 | –
CN[C@@H]1C[C@@H](c2ccc(Cl)c(Cl)c2)c2ccccc21.Cl [Indatraline, Indatraline hydrochloride] | – | – | – | Residual viable cells (Microscopy) [1, 5]: 43%; Residual viable cells (Microscopy) ([1]; Table 3, drugs 50 μM, 7-day old stationary phase cells treated for 7 days): 43%; Residual viable cells (SYBR Green/PI) [2, 5]: 51%; Residual viable cells (SYBR/PI) [2, 6]: 51%; activity against stationary phase B. burgdorferi (in words) [2]: high activity
CN(C)c1ccc2nc3ccc(=[N+](C)C)cc-3sc2c1 [Methylene blue hydrate] | 40 | – | – | activity against B. burgdorferi persisters by careful microscopy analysis (in words) ([1]; coloured drugs verified by microscopy): high activity; activity against stationary phase B. burgdorferi (in words) [2]: good activity
CN1CCCN=C1/C=C/c1cccc(O)c1 [Oxantel] | 63 | 44 | 44 | –
Nc1nc2c(ncn2CCC(CO)CO)c(=O)[nH]1 [Penciclovir] | 60 | 64 | 64 | –
c1ccc2c(c1)Nc1ccccc1S2 [Phenothiazine] | 53 | – | – | viability at 50 µM [2, 7]: 54%; viability at 50 µM [2, 8]: 54%
COc1ccc(C[C@H](N)C(=O)N[C@H]2[C@@H](O)[C@H](n3cnc4c(N(C)C)ncnc43)O[C@@H]2CO)cc1 [Puromycin] | 48 | 65 | 65 | –
CCc1nc(N)nc(N)c1-c1ccc(Cl)cc1 [Pyrimethamine] | 55 | 45 | 45 | –
CO[C@H]1/C=C/O[C@@]2(C)Oc3c(C)c([O-])c4c(O)c(cc(O)c4c3C2=O)NC(=O)/C(C)=C\C=C\[C@H](C)[C@H](O)[C@@H](C)[C@@H](O)[C@@H](C)[C@H](OC(C)=O)[C@@H]1C.[Na+] [Rifamycin SV] | – | – | – | Residual viable cells (Microscopy) [1]: 60%
CC(N)C12CC3CC(CC(C3)C1)C2 (centres unmarked) [Rimantadine] | – | – | 68 | –
CC[C@H]1OC(=O)[C@H](C)[C@@H](O[C@H]2C[C@@](C)(OC)[C@@H](O)[C@H](C)O2)[C@H](C)[C@@H](O[C@@H]2O[C@H](C)C[C@H](N(C)C)[C@H]2O)[C@](C)(O)C[C@@H](C)/C(=N\OCOCCOC)[C@H](C)[C@@H](O)[C@]1(C)O [Roxithromycin] | 65 | 62 | 62 | –

Molecule | viability at 50 µM [1] [%] | viability at 50 µM [2, 3] [%] | viability at 50 µM [2, 4] [%] | further results
O=C(Nc1ccccc1)c1ccccc1O [Salicylanilide] | – | – | – | viability at 50 µM [2, 8]: 63%
O=C(O)c1cn(-c2ccc(F)cc2)c2cc(N3CCNCC3)c(F)cc2c1=O [Sarafloxacin, Sarafloxacin HCl] | 50 | 47 | 47 | –
Nc1ccc(S(=O)(=O)Nc2ccc(Cl)nn2)cc1 [Sulfachlorpyridazine] | – | – | – | viability at 50 µM [2, 8]: 58%
Cc1nc(NS(=O)(=O)c2ccc(N)cc2)oc1C [Sulfamoxole] | 55 | 57 | 57 | –
O=c1n(Cl)c(=O)n(Cl)c(=O)n1Cl [Symclosene (Trichloroisocyanuric acid), Trichloroisocyanuric acid] | – | – | – | viability at 50 µM [2, 8]: 60%
C[C@]1(Cn2ccnn2)[C@H](C(=O)O)N2C(=O)C[C@H]2S1(=O)=O [Tazobactam] | 56 | 54 | 54 | –
ClC(Cl)=C(Cl)Cl [Tetrachloroethylene] | 53 | – | – | viability at 50 µM [2, 8]: 36%
c1ccc(C2CN3CCSC3=N2)cc1 (centres unmarked) [Tetramisole] | – | 48 | 48 | –
CC(=O)Nc1ccc(/C=N/NC(N)=S)cc1 [Thiacetazone (Amithiozone), Amithiozone] | – | – | 73 | –
CS(=O)(=O)c1ccc([C@@H](O)[C@@H](CO)NC(=O)C(Cl)Cl)cc1 [Thiamphenicol] | – | – | 57 | –
C=C(NC(=O)C(=C)NC(=O)c1csc(C2=N[C@@H]3c4csc(n4)[C@H]4NC(=O)c5csc(n5)[C@H]([C@](C)(O)[C@@H](C)O)NC(=O)[C@H]5CSC(=N5)/C(=C/C)NC(=O)[C@H]([C@@H](C)O)NC(=O)c5csc(n5)[C@]3(CC2)NC(=O)[C@H](C)NC(=O)C(=C)NC(=O)[C@H](C)NC(=O)[C@H]([C@@H](C)CC)N[C@@H]2C=Cc3c([C@H](C)O)cc(nc3[C@H]2O)C(=O)O[C@@H]4C)n1)C(N)=O [Thiostrepton] | 66 | – | – | viability at 50 µM [2, 7]: 43%; viability at 50 µM [2, 8]: 43%
CCN(CC)CCOc1ccc2c(c1)C(=O)c1cc(OCCN(CC)CC)ccc1-2 [Tilorone, Tilorone dihydrochloride] | – | 44 | 44 | activity against stationary phase B. burgdorferi (in words) [2]: good activity
Cc1cc(-n2c(=O)[nH]c(=O)n(C)c2=O)ccc1Oc1ccc(SC(F)(F)F)cc1 [Toltrazuril] | 60 | 43 | 43 | –
NC1CCN(c2nc3c(cc2F)c(=O)c(C(=O)O)cn3-c2ccc(F)cc2F)C1 (centres unmarked) [Tosufloxacin] | – | 57 | 57 | –
O=c1[nH]c(=O)n([C@H]2C[C@H](O)[C@@H](CO)O2)cc1C(F)(F)F [Trifluridine] | – | – | 55 | –
C=CCCCCCCCCC(=O)O [Undecylenic acid] | 74 | – | 55 | –
CC(C)[C@H](N)C(=O)OCCOCn1cnc2c(=O)[nH]c(N)nc21 [Valacyclovir] | – | – | 58 | –
C[C@@H](c1ncncc1F)[C@](O)(Cn1cncn1)c1ccc(F)cc1F [Voriconazole] | – | – | 65 | –
CC(=O)N[C@H]1[C@H]([C@H](O)[C@H](O)CO)OC(C(=O)O)=C[C@@H]1N=C(N)N [Zanamivir] | 60 | 49 | 49 | activity against stationary phase B. burgdorferi (in words) [2]: good activity
Nc1ccc([As](=O)(O)O)cc1 [p-Arsanilic acid] | – | – | – | Residual viable cells (SYBR/PI) [2, 6]: 49%
Penimepicycline | – | – | – | Residual viable cells (Microscopy) [1]: 60%
